Earlier results on one substance are cited in patent EP4603080A1 (Adocia, priority 2024, dated 2025).

The conditions of this data set: read-out: EC50value; potency, WO2022129526 Assay 2, Tables 4b and 4c.

“N-alpha-[(S)-4-Carboxy-4-(19-carboxynonadecanoylamino)butyryl]-[Glu14,Arg17,Pro37]-pramlintide [cagrilintide]”: the EC50 is approximately 0.011 nM.
